Test results reported in article PMC10707468, “Pharmacokinetics of Novel Dopamine Transporter Inhibitor CE-123 and Modafinil with a Focus on Central Nervous System Distribution” (International Journal of Molecular Sciences, 2023).
Read-outs that look alike come from different tables or passages of the source.

Legend:
[1] = NeuroPK parameters by Combinatory Mapping Approach; format: in vivo; details: rat; for concentration at 4 h / Kp uu at 4 h: Sprague-Dawley, intravenous, 20 mg/kg; for concentration at 4 h: brain interstitial fluid, steady state, Equation (6), read-out: Unbound-drug concentration in brain interstitial fluid, Cu,brainISF; for Kp uu at 4 h: extent of BBB transport, Equation (4), read-out: Unbound brain-to-plasma concentration ratio, Kp,uu,brain; for Kp uu: brain slices (Vu,brain) and brain homogenate (fu,brain), Equation (5), Vu,brain·fu,brain, read-out: Unbound intracellular-to-extracellular (interstitial) concentration ratio, Kp,uu,cell; for Kp,uu at the blood–spinal cord barrier (BSCB): spinal-cord-to-plasma unbound ratio
Source text: The neuropharmacokinetic (neuroPK) parameters of the novel DAT inhibitor as well as modafinil have so been far assessed based on the total drug concentration in the plasma and the entire brain, usually at a single time point in a non-dedicated PK study. Yet, the total brain-to-plasma concentration ratio (Kp,brain) is just one of the neuroPK parameters with a limited use for characterization of the extent of BBB transport. According to the Free Drug Theory, the concentration of unbound (free) drugs, particularly at a site of action like the brain, governs the pharmacological effect(s), emphasizing the significance of unbound drug concentrations in distribution processes. To this end, the unbound brain-to-plasma concentration ratio, Kp,uu,brain, is the key neuroPK parameter to obtain for the assessment of the extent of BBB transport. With the Combinatory Mapping Approach (CMA), evaluation of the neuroPK parameters of unbound drugs can be obtained in a more high-throughput mode, which makes it useful for CNS drug discovery. The CMA employs several in vivo and in vitro methods to provide a comprehensive assessment of drug properties concerning BBB transport and intra-brain distribution. In an in vivo neuroPK study, the total concentrations of drugs in the brain and plasma are determined at the steady state, which is pivotal for assessing Kp,brain (Figure 1(A1)). In parallel, in vitro investigations involve the determination of unbound fractions of drugs in the plasma (fu,plasma) and brain tissue binding properties (fu,brain) using equilibrium dialysis and the brain slice method (Vu,brain) (Figure 1(B1,C1)). Finally, a combination of these acquired parameters enables the estimation of Kp,uu,brain and the unbound drug cell partitioning coefficient (Kp,uu,cell). Kp,uu,brain represents the ratio of brain interstitial fluid (ISF) to the plasma unbound drug concentrations at the steady state, providing a quantitative description of the net BBB drug transport. This parameter relies on three compound-specific parameters, Kp,brain, Vu,brain, and fu,plasma. […] Kp,uu,cell represents the steady-state ratio of intracellular to extracellular unbound drug concentrations, describing the drug transport across the cellular membrane.
The unbound brain-to-plasma concentration ratio, Kp,uu,brain, was calculated by using the three compound-specific parameters: Kp,brain, Vu,brain, and fu,plasma:(4) Kp,uu,brain=Kp,brain/Vu,brain·fu,plasma
The unbound intracellular-to-extracellular (interstitial) concentration ratio, Kp,uu,cell, was estimated by using the Vu,brain and fu,brain parameters:(5) Kp,uu,cell=Vu,brain·fu,brain
Due to the multiparameter character of Kp,uu,brain and Kp,uu,cell assessment (Equations (4) and (5)), the estimation of variability around the mean values was calculated using an error propagation method as described in Loryan et al. (2017).
The Kp,uu,brain values were further used to calculate the unbound drug concentration in the brain interstitial fluid Cu,brain,ISF, according to Loryan et al. (2014):(6) Cu,brain,ISF=Kp,uu,brain·Cu,plasma

[2] = In vitro plasma stability assay; format: in vitro ADME; details: rat plasma
Procedure: In vitro plasma stability assay was used in the scope of the validation studies. Briefly, 40 μL of blank rat plasma or blank rat plasma containing 10% DMF as an inhibitor was first pre-warmed for 5 min at 37 °C using a Thermomixer® comfort (Eppendorf, Hamburg, Germany). […] The reaction was terminated after 0, 1, 2, and 4 h, via the addition of 50 μL of ice-cold ACN containing the IS solution. The samples were centrifuged for 10 min at 3000× g at 4 °C. The supernatant of all samples was diluted with 0.1% FA in water, 1:2 (v:v), and 10 µL of the sample was injected onto the LC–HRMS system.

[3] = Equilibrium dialysis, brain tissue binding; format: in vitro ADME, rat; details: for fraction unbound at 5 h, 10 µM: whole brain homogenate (1:9 in PBS), rat brain homogenate 1:9 in PBS pH 7.4, 10 µM, corrected for dilution, read-out: Fraction unbound in brain homogenate, fu,brain
Procedure: A Teflon 96-well plate (model HTD96b, HTDialysis LLC, Gales Ferry, CT, USA) was used in all tissue-binding experiments. Th evaluation of PPB was determined according to van Liempd et al. (2011) and BTB according to the previously published protocols. […] The whole brain tissue from three rats was individually homogenized in 9 volumes of phosphate-buffered saline (PBS), pH 7.4. […] Then, 100 µL of spiked plasma or brain tissue homogenate in triplicate was dialyzed against an equal volume of PBS, pH 7.4, for 5 h at 37 °C and 200 rpm. Furthermore, 50 µL was taken from both sides of the membrane at the end of incubation. The unbound fraction of the compounds in the plasma (fu,plasma) or in the diluted (D) brain homogenate (fu,hD) was calculated according to the following equation:(1) fu,plasma or fu,hD=Cbuffer/Ctissue where Cbuffer represents the concentration of the compound measured in the buffer and Ctissue is the concentration measured in the plasma or brain tissue homogenate. Due to dilution, fu,hD is usually higher than the actual fu,brain. Thus, fu,hD was corrected for the dilution factor (D), which is in this case 10 times. (2) fu,brain=fu,hD/D+fu,hD−D·fu,hD

CYP3A = assay: CYP P450 inhibition in HLMs (Eurofins Panlabs); format: in vitro ADME, human; details: S-CE-123 10 µM
Procedure: (§1) In vitro metabolism assays for the cytochrome (CYP) P450 inhibition of S-CE-123 was outsourced to Eurofins Panlabs (St. Charles, MO, USA, study number 100050638). Briefly, 0.1 mg/mL of the HLMs was incubated for 10 min at 37 °C with substrate (10 µM phenacetin for CYP1A, 100 µM bupropion for CYP2B6, 10 µM amodiaquine for CYP2C8, 10 µM diclofenac for CYP2C9, 0.5 µM omeprazole for CYP2C19, 5 µM dextromethorphan for CYP2D6, 5 µM midazolam for CYP3A, and 50 µM testosterone for CYP3A4) in the presence/absence of S-CE-123 (10 µM). The peak areas corresponding to the metabolite of each substrate were recorded. The percent of control activity was then calculated by comparing the peak area obtained in the presence of the test compound to that obtained in the absence of the test compound. Subsequently, the percent inhibition was calculated by subtracting the percent control activity from 100 for each compound. The IC50 values (concentration causing a half-maximal inhibition of control values) were determined using non-linear regression analysis of the concentration–response curve using Hill equation curve fitting.

NET = test system: NET; set-up: method as in PMID 29410048; details: cited from earlier work
[4] = test system: human isoforms of the DAT; set-up: method as in PMID 29230168; details: HEK293 cells; cited from earlier work
CYP2D6 = target: T1, CYP2D6 (Homo sapiens, UniProt P10635); assay: CYP P450 inhibition in HLMs (Eurofins Panlabs); format: in vitro ADME; details: microsomes, S-CE-123 10 µM, range given for CYP2C9, CYP1A and CYP2D6 together, read-out: inhibition of control values
T1 construct: from tissue; host or cells: human liver microsomes (HLMs)
T1 sequence (P10635 whole entry): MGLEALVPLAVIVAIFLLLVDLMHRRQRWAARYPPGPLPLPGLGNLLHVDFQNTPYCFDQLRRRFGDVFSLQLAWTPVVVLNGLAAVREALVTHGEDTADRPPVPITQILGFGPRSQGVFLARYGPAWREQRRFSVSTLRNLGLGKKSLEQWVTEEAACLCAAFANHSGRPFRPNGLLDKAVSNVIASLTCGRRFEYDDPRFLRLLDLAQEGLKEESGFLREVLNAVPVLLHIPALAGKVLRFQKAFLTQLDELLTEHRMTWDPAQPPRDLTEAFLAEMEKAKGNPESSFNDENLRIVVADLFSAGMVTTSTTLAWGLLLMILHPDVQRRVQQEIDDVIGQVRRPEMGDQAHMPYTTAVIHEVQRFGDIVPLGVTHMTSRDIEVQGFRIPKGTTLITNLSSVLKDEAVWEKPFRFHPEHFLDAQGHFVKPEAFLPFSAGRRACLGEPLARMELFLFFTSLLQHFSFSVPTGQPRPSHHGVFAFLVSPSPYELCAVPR
Procedure: as §1

NC(=O)C[S@@+]([O-])C(c1ccccc1)c1ccccc1 [R-modafinil, reference compound]
concentration at 4 h [1]: 282 nM | Kp uu at 4 h ([1]; brain): 0.1 | Kp uu at 4 h [1]: 0.097 ± 0.034 | Kp uu [1]: 0.85 ± 0.6 | Kp,uu at the blood–spinal cord barrier (BSCB) [1]: dominating net active efflux | R-modafinil level remaining ([2]; 4 h incubation at 37 °C): about 50% | metabolized ([2]; after 4 h at 37 °C): 50% | fraction unbound at 5 h, 10 µM [3]: 0.23 ± 0.1

[O-][S@@+](Cc1cncs1)C(c1ccccc1)c1ccccc1 [S-CE-123]
inhibition of control values (CYP3A): Low inhibition | activity on NET (NET): negligible activity | fold higher in vitro activity on the DAT than its R-enantiomer [4]: ~8 fold | concentration at 4 h [1]: 386 nM | Kp uu at 4 h ([1]; brain): 0.5 | Kp uu at 4 h [1]: 0.46 ± 0.032 | fold difference in Kp,uu,brain, S-CE-123 vs R-modafinil [1]: ca. 5 fold | Kp uu [1]: 0.18 ± 0.09 | Kp,uu at the blood–spinal cord barrier (BSCB) [1]: closer to unity | brain tissue binding capacity, fold higher compared to R-modafinil ([3]; rat brain homogenate): 6.6 fold | fraction unbound at 5 h, 10 µM [3]: 0.035 ± 0.012 | inhibition at 10 min, 10 µM (CYP2D6): 47 to 68%
